Data as given in patent US10519134B2, “Pyrazole compounds and methods of making and using same” (Lundbeck La Jolla Research Center, Inc., priority 2015, dated 2019).

What was measured:
[1] = target: T1, MAGL (Mus musculus, UniProt O35678); assay: In vitro competitive activity-based protein profiling (mouse), MAGL gel band; format: biochemical; details: for IC50: mouse; for inhibition at 1 µM: read-out: MAGL % inh. 1 μM
T1 construct: Proteomes (mouse brain membrane fraction or cell lysates); from tissue; host or cells: mouse brain membrane fraction (or cell lysates)
T1 sequence (O35678 1-303): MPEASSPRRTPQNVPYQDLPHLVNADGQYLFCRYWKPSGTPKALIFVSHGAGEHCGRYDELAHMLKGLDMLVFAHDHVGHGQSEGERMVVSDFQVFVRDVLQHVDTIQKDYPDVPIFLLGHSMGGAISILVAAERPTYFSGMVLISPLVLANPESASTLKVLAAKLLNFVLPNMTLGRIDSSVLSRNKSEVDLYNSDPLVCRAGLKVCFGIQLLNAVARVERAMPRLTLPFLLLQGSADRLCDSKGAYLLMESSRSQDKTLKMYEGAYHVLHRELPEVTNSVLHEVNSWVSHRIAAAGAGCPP
In short: (§1)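 Mouse brain membrane proteome or cell lysate (1.0 mg/mL protein) preincubated 30 min at 37 °C with varying inhibitor concentrations, then labelled 30 min at 37 °C with FP-Rh or HT-01 probe (50 μM stock). After SDS-PAGE, activity taken from fluorescent intensity of the MAGL and FAAH gel bands.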

[2] = target: T2, FAAH (Mus musculus, UniProt O08914); assay: In vitro competitive activity-based protein profiling (mouse), FAAH gel band; format: biochemical; details: for IC50: mouse; for inhibition at 1 µM: read-out: FAAH % inh. 1 μM
T2 construct: Proteomes (mouse brain membrane fraction or cell lysates); from tissue; host or cells: mouse brain membrane fraction (or cell lysates)
T2 sequence (O08914 1-579): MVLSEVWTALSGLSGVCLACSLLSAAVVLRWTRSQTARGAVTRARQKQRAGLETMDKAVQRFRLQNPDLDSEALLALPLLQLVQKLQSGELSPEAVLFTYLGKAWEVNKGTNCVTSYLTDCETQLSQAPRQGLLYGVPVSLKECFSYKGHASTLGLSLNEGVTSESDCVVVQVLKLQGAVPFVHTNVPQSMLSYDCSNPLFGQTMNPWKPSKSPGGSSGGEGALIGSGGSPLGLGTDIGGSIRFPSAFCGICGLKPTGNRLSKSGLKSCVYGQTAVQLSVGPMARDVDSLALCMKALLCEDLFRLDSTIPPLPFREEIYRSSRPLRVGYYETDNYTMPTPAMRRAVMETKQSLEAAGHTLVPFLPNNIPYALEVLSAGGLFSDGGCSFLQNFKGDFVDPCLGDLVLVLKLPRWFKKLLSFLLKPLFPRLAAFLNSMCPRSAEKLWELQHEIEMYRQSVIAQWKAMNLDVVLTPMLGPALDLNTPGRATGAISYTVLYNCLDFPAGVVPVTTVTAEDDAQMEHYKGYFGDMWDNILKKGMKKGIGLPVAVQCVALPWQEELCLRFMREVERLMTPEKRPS
In short: as §1

Row | SMILES | IC50 [1] | inhibition at 1 µM [1] | IC50 [2] | inhibition at 1 µM [2]
1 | CS(=O)(=O)Nc1ccn(C(=O)N2CCN(Cc3ccc(-c4ccccc4)cc3Cl)CC2)n1 [Example 158, N-(1-(4-((3-chloro-[1,1′-biphenyl]-4-yl)methyl)piperazine-1-carbonyl)-1H-pyrazol-3-yl) methanesulfonamide] | ≤ 100 nM | ≥ 75% | 100 to 1000 nM | ≥ 75%
2 | CC(=O)N(C)c1ccn(C(=O)N2CCN(Cc3cc(N4CCCC4)cc(C(F)(F)F)c3)CC2)n1 [Example 70, N-methyl-N-(1-(4-(3-(pyrrolidin-1-yl)-5-(trifluoromethyl)benzyl)piperazine-1-carbonyl)-1H-pyrazol-3-yl)acetamide] | 100 to 1000 nM | ≥ 75% | 1000 to 10000 nM | 0 to 25%
3 | CS(=O)(=O)Nc1ccn(C(=O)N2CCC3(CCCN3Cc3ccc(C(F)(F)F)cc3N3CCOCC3)CC2)n1 [Example 126, N-(1-(1-(2-morpholino-4-(trifluoromethyl)benzyl)-1,8-diazaspiro[4.5]decane-8-carbonyl)-1H-pyrazol-3-yl)methanesulfonamide] |  | ≥ 75% |  | 0 to 25%
4 | CC(=O)N1CC2(CCN(c3ccccc3CN3CCN(C(=O)n4ccc(NS(C)(=O)=O)n4)CC3)C2)C1 [Example 122, N-(1-(4-(2-(2-acetyl-2,6-diazaspiro[3.4]octan-6-yl)benzyl)piperazine-1-carbonyl)-1H-pyrazol-3-yl) methanesulfonamide] |  | 50 to 75% |  | 0 to 25%
5 | CC(=O)Nc1ccn(C(=O)N2CCN(Cc3ccc(C(F)(F)F)cc3Oc3nc4ccccc4s3)CC2)n1 [Example 75, N-(1-(4-(2-(benzo[d]thiazol-2-yloxy)-4-(trifluoromethyl)benzyl)piperazine-1-carbonyl)-1H-pyrazol-3-yl)acetamide] | ≤ 100 nM | ≥ 75% | 1000 to 10000 nM | 0 to 25%
6 | CC(=O)N(C)c1ccn(C(=O)N2CCN(Cc3ccc(C(F)(F)F)cc3N3CCCC3)CC2)n1 [Example 2, N-methyl-N-(1-(4-(2-(pyrrolidin-1-yl)-4-(trifluoromethyl)benzyl)piperazine-1-carbonyl)-1H-pyrazol-3-yl)acetamide] | 100 to 1000 nM | ≥ 75% | 1000 to 10000 nM | 0 to 25%
7 | CC(=O)Nc1ccn(C(=O)N2CCC3(CCCN3Cc3ccc4[nH]cnc4c3)CC2)n1 [Example 253, N-(1-(1-((1H-benzo[d]imidazol-5-yl)methyl)-1,8-diazaspiro[4.5]decane-8-carbonyl)-1H-pyrazol-3-yl)acetamide] |  | 50 to 75% |  | 0 to 25%
8 | Cc1c(CN2CCCC23CCN(C(=O)n2ccc(NS(C)(=O)=O)n2)CC3)cccc1N1CCCC1 [Example 224, N-(1-(1-(2-methyl-3-(pyrrolidin-1-yl)benzyl)-1,8-diazaspiro[4.5]decane-8-carbonyl)-1H-pyrazol-3-yl) methanesulfonamide] | 1000 to 10000 nM | ≥ 75% | 1000 to 10000 nM | 0 to 25%
9 | CC(C)C(=O)Nc1ccn(C(=O)N2CCN(Cc3ccc(C(F)(F)F)cc3N3CCCC3)CC2)n1 [Example 263, N-(1-(4-(2-(pyrrolidin-1-yl)-4-(trifluoromethyl)benzyl)piperazine-1-carbonyl)-1H-pyrazol-3-yl)isobutyramide] | 100 to 1000 nM | ≥ 75% | 1000 to 10000 nM | 0 to 25%
10 | CC(=O)Nc1ccn(C(=O)N2CCN(Cc3ccc(C(F)(F)F)cc3N3CCN(CC(=O)O)CC3)CC2)n1 [Example 277, 2-(4-(2-((4-(3-acetamido-1H-pyrazole-1-carbonyl)piperazin-1-yl)methyl)-5-(trifluoromethyl)phenyl)piperazin-1-yl)acetic acid] |  | ≥ 75% |  | 0 to 25%
11 | CC(=O)Nc1ccn(C(=O)N2CCC3(CCCN3Cc3ccc(C(F)(F)F)cc3OC3CCS(=O)(=O)CC3)CC2)n1 [Example 87, N-(1-(1-(2-((1,1-dioxidotetrahydro-2H-thiopyran-4-yl)oxy)-4-(trifluoromethyl)benzyl)-1,8-diazaspiro[4.5]decane-8-carbonyl)-1H-pyrazol-3-yl)acetamide] | 100 to 1000 nM | ≥ 75% | 1000 to 10000 nM | 25 to 50%
12 | CS(=O)(=O)Nc1ccn(C(=O)N2CCN(Cc3cc(Cl)cc(C(F)(F)F)c3)CC2)n1 [Example 176, N-(1-(4-(3-chloro-5-(trifluoromethyl)benzyl)piperazine-1-carbonyl)-1H-pyrazol-3-yl) methanesulfonamide] |  | ≥ 75% |  | 0 to 25%
13 | CS(=O)(=O)Nc1ccn(C(=O)N2CCC3(CCCN3Cc3ccc(C(F)(F)F)cc3N3CCCCC3)CC2)n1 [Example 133, N-(1-(1-(2-(piperidin-1-yl)-4-(trifluoromethyl)benzyl)-1,8-diazaspiro[4.5]decane-8-carbonyl)-1H-pyrazol-3-yl)methanesulfonamide] | 100 to 1000 nM | ≥ 75% | 1000 to 10000 nM | 0 to 25%
14 | CS(=O)(=O)Nc1ccn(C(=O)N2CCC3(CCCN3Cc3ccc(N4CCOCC4)cc3C(F)(F)F)CC2)n1 [Example 164, N-(1-(1-(4-morpholino-2-(trifluoromethyl)benzyl)-1,8-diazaspiro[4.5]decane-8-carbonyl)-1H-pyrazol-3-yl)methanesulfonamide] |  | 0 to 25% |  | 0 to 25%
15 | Cc1c(CN2CCCC23CCN(C(=O)n2ccc(NS(C)(=O)=O)n2)CC3)cccc1N1CC2CCC(C1)O2 [Example 149, N-(1-(1-(3-(8-oxa-3-azabicyclo[3.2.1]octan-3-yl)-2-methylbenzyl)-1,8-diazaspiro[4.5]decane-8-carbonyl)-1H-pyrazol-3-yl) methanesulfonamide] |  | 50 to 75% |  | 0 to 25%
16 | CS(=O)(=O)Nc1ccn(C(=O)N2CCN(Cc3cc(N4CCN(S(C)(=O)=O)CC4)cc(C(F)(F)F)c3)CC2)n1 [Example 254, N-(1-(4-(3-(4-(methylsulfonyl)piperazin-1-yl)-5-(trifluoromethyl)benzyl)piperazine-1-carbonyl)-1H-pyrazol-3-yl) methanesulfonamide] |  | 25 to 50% |  | 0 to 25%
17 | CC(=O)Nc1ccn(C(=O)N2CCN(Cc3ccc(C(F)(F)F)c(-c4nnn[nH]4)c3)CC2)n1 [Example 222, N-(1-(4-(3-(1H-tetrazol-5-yl)-4-(trifluoromethyl)benzyl)piperazine-1-carbonyl)-1H-pyrazol-3-yl)acetamide] | ≤ 100 nM | ≥ 75% | 1000 to 10000 nM | 0 to 25%
18 | CS(=O)(=O)Nc1ccn(C(=O)N2CCN(Cc3ccc(C(F)(F)F)cc3N3CCC(O)CC3)CC2)n1 [Example 252, N-(1-(4-(2-(4-hydroxypiperidin-1-yl)-4-(trifluoromethyl)benzyl)piperazine-1-carbonyl)-1H-pyrazol-3-yl) methanesulfonamide] | ≤ 100 nM | ≥ 75% | 1000 to 10000 nM | 0 to 25%
19 | CS(=O)(=O)Nc1ccn(C(=O)N2CCN(Cc3ccc(C(F)(F)F)c(N4CCOCC4)c3)CC2)n1 [Example 168, N-(1-(4-(3-morpholino-4-(trifluoromethyl)benzyl)piperazine-1-carbonyl)-1H-pyrazol-3-yl) methanesulfonamide] |  | ≥ 75% |  | 0 to 25%
20 | O=C(CO)Nc1ccn(C(=O)N2CCN(Cc3cccc(Oc4ccccc4)c3)CC2)n1 [Example 92, 2-hydroxy-N-(1-(4-(3-phenoxybenzyl)piperazine-1-carbonyl)-1H-pyrazol-3-yl)acetamide] |  | ≥ 75% |  | ≥ 75%
21 | CS(=O)(=O)Nc1ccn(C(=O)N2CCN(Cc3ccc(-c4ccccc4)cc3OCc3ccccc3)CC2)n1 [Example 183, N-(1-(4-((3-(benzyloxy)-[1,1′-biphenyl]-4-yl)methyl)piperine-1-carbonyl)-1H-pyrazol-3-yl) methanesulfonamide] |  | ≥ 75% |  | 0 to 25%
22 | CC(=O)Nc1ccn(C(=O)N2CCC3(CCCN3Cc3ccc(C(F)(F)F)c(C(=O)O)c3)CC2)n1 [Example 108, 5-((8-(3-acetamido-1H-pyrazole-1-carbonyl)-1,8-diazaspiro[4.5]decan-1-yl)methyl)-2-(trifluoromethyl)benzoic Acid] |  | 50 to 75% |  | 0 to 25%
